Like-named read-outs stand apart in the source and are kept apart here.
Assays:
[1] = target: T1, HCV NS5B RdRp genotype 1b (Hepatitis C virus genotype 1b, UniProt Q9WMX2); test: Standard HCV NS5B RdRp enzyme assay; format: biochemical; details: HCV NS5B RdRp genotype 1b, read-out: IC50
T1 construct: The protein was expressed with an 18 amino acid C-terminal truncation to enhance the solubility; made in house; host or cells: E. coli BL21(DE3), pET21a vector
Summary of the method: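 C-terminally truncated (18 aa) genotype 1b NS5B from E. coli, 28 nM, with 6 nM polyA template, 180 nM biotinylated oligo-dT12 primer and 3H-UTP (0.29 μM total UTP). Hepes pH 7.5 buffer with 2% DMSO; 60 min at 30° C. EDTA stop, SPA read-out; IC50 from seven concentrations by four-parameter fit.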

[2] = system: HCV replicon cells; test: HCV replicon FRET / luciferase assay (96-well plates); format: cell-based; details: Hepatitis C virus, HCV replicon, read-out: EC50
Summary of the method: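 Trypsinized replicon cells were seeded with compound titrations and incubated at 37 °C for various times. Alamar blue was added to gauge toxicity. Plates were then rinsed and either lysed with FRET peptide reagent for kinetic fluorescence reading or switched to phenol red-free DMEM for luciferase measurement.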

T1 sequence (Q9WMX2 2420-2992): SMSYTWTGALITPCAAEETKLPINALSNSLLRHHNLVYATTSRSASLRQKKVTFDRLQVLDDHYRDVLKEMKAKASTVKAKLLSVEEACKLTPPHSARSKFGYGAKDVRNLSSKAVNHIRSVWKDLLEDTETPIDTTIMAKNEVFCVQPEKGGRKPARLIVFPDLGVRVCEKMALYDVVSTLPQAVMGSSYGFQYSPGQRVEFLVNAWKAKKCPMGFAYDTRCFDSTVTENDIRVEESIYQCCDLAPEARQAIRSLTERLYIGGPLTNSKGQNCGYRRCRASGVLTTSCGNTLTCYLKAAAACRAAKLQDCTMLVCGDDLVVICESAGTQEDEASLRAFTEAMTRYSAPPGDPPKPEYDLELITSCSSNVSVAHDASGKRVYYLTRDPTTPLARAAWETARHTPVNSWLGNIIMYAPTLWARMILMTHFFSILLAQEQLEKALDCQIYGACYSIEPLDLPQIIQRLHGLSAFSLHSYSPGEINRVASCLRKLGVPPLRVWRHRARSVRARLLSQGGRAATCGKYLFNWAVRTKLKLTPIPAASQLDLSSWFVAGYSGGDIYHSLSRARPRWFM

Row | Structure (SMILES) | IC50 ([1]; Table 1a) | EC50 ([2]; Table 1a) | other results
1 | CNC(=O)c1c(-c2ccc(F)cc2)oc2ccc(-c3cccc(C(=O)O)c3OC)cc12 |  |  | IC50 ([1]; untitled table after Table 1b): 4750 nM; EC50 ([2]; untitled table after Table 1b, values without asterisk): 13300 nM
2 | CNC(=O)c1c(-c2ccc(F)cc2)oc2ccc(-c3cc(C(=O)NC4(c5cccc(C)c5)CC4)c(OC)cc3C)cc12 |  |  | IC50 ([1]; Table 1d (class symbols)): 1 to 250 nM; EC50 ([2]; 24 h, Table 1d (class symbols)): 1 to 250 nM
3 | CNC(=O)c1c(-c2ccc(F)cc2)oc2ccc(-c3cc(C(=O)NC4(c5cn(C)cn5)CC4)ccc3C)cc12 |  |  | IC50 ([1]; Table 1d (class symbols)): < 20 nM; EC50 ([2]; 24 h, Table 1d (class symbols)): 1 to 250 nM
4 | CNC(=O)c1c(-c2ccc(F)cc2)oc2ccc(-c3cc(C(=O)NC4(c5cnccn5)CC4)c(OC)cc3C)cc12 |  |  | IC50 ([1]; Table 1d (class symbols)): 1 to 250 nM; EC50 ([2]; 24 h, Table 1d (class symbols)): 1 to 250 nM
5 | CNC(=O)c1c(-c2ccc(F)cc2)oc2ccc(-c3cccc(C(=O)NC4(c5ccccc5)CC4)c3)cc12 [drawing 67] | < 250 nM | < 250 nM | 
6 | CNC(=O)c1c(-c2ccc(F)cc2)oc2cc(N)c(-c3cccc(C(=O)NC(C)(C)c4ccccc4)c3)cc12 [drawing 94] | < 250 nM | < 250 nM | 
7 | CNC(=O)c1c(-c2ccc(F)cc2)oc2ccc(-c3cc(C(=O)NC4(c5ccccc5)CC4)ccc3F)cc12 [drawing 100] | < 250 nM | < 250 nM | 
8 | CNC(=O)c1c(-c2ccc(F)cc2)oc2ccc(-c3cccc(C(=O)NCCOC)c3)cc12 [drawing 182] | 1000 to 10000 nM | 1000 to 10000 nM | 
9 | CNC(=O)c1c(-c2ccc(F)cc2)oc2ccc(-c3cccc(C(=O)N(C)CCC#N)c3)cc12 [drawing 204] | 250 to 1000 nM | 1000 to 10000 nM | 
10 | CNC(=O)c1c(-c2ccc(F)cc2)oc2ccc(-c3cccc(C(=O)N4CCCCC4C)c3)cc12 (stereo not drawn) [drawing 208] | 250 to 1000 nM | 1000 to 10000 nM | 
11 | CCC[C@H](CO)NC(=O)c1cccc(-c2ccc3oc(-c4ccc(F)cc4)c(C(=O)NC)c3c2)c1 [drawing 228] | 1000 to 10000 nM | 1000 to 10000 nM | 
12 | CCCC[C@H](CO)NC(=O)c1cccc(-c2ccc3oc(-c4ccc(F)cc4)c(C(=O)NC)c3c2)c1 [drawing 232] | 250 to 1000 nM | 1000 to 10000 nM | 
13 | CNC(=O)c1c(-c2ccc(F)cc2)oc2ccc(-c3cccc(C(=O)N[C@@H](CO)C(C)C)c3)cc12 [drawing 235] | 250 to 1000 nM | 1000 to 10000 nM | 
14 | CNC(=O)c1c(-c2ccc(F)cc2)oc2ccc(-c3cccc(C(=O)N[C@H]4CCC[C@H]4c4ccc(Cl)cc4)c3)cc12 [drawing 243] | > 10000 nM | 1000 to 10000 nM | 
15 | CNC(=O)c1c(-c2ccc(F)cc2)oc2ccc(-c3cccc(C(=O)N4CC[C@H](NC(C)=O)C4)c3)cc12 [drawing 277] | 1000 to 10000 nM | > 10000 nM | 
16 | CNC(=O)c1c(-c2ccc(F)cc2)oc2ccc(-c3ccc(C(=O)N(C)Cc4cccnc4)cc3)cc12 [drawing 286] | 1000 to 10000 nM | > 10000 nM | 
17 | CNC(=O)c1c(-c2ccc(F)cc2)oc2ccc(-c3ccc(C(=O)N4CCC[C@@H]4COC)cc3)cc12 [drawing 288] | > 10000 nM | > 10000 nM | 
18 | CN1CN(C)c2c(-c3cccc(C(N)=O)c3)ccc3oc(-c4ccc(F)cc4)c(c23)C1=O [drawing 319] | > 10000 nM | > 10000 nM | 
19 | CNC(=O)c1c(-c2ccc(F)cc2)oc2ccc(-c3cc(C(=O)NC(C)(C)c4ccccc4)ccc3OC)cc12 [drawing 355] |  |  | IC50 ([1]; Table 1b): < 250 nM; EC50 ([2]; Table 1b): < 250 nM
20 | CNC(=O)c1c(-c2ccc(F)cc2)oc2ccc(-c3cc(C(=O)NC4(c5ccccc5)CC4)ccc3OC)cc12 [drawing 356] |  |  | IC50 ([1]; Table 1b): < 250 nM; EC50 ([2]; Table 1b): < 250 nM
21 | CNC(=O)c1c(-c2ccc(F)cc2)oc2ccc(-c3cc(C(=O)NC4(c5ccccc5)CC4)ccc3C)cc12 [drawing 362] |  |  | IC50 ([1]; Table 1b): < 250 nM; EC50 ([2]; Table 1b): < 250 nM
22 | CNC(=O)c1c(-c2ccc(F)cc2)oc2ccc(-c3cc(C(=O)NC4(c5ccccn5)CC4)ccc3Cl)cc12 [drawing 384] |  |  | IC50 ([1]; Table 1b): < 250 nM; EC50 ([2]; Table 1b): < 250 nM
23 | CNC(=O)c1c(-c2ccc(F)cc2)oc2ccc(-c3cc(C(=O)NCC(C)C)ccc3OCCC3CNCCO3)cc12 (stereo not drawn) [drawing 415] |  |  | IC50 ([1]; Table 1b): < 250 nM; EC50 ([2]; Table 1b): < 250 nM
24 | CNC(=O)c1c(-c2ccc(F)cc2)oc2ccc(-c3cc(C(=O)NC4(c5ccccn5)CC4)ccc3C)cc12 [drawing 425] |  |  | IC50 ([1]; Table 1b): < 250 nM; EC50 ([2]; Table 1b): < 250 nM
